Measured values as given in patent US20240293379A1, “THERAPEUTIC AGENT FOR CANCER OF PATIENT WITH DECREASE IN RB1 FUNCTION USING MYT1 INHIBITOR AND CHEMOTHERAPEUTIC AGENT IN COMBINATION, AND TREATMENT METHOD THEREOF” (Chugai Seiyaku Kabushiki Kaisha, priority 2022, published 2024).
Where two headings read alike, the source gives them in different places.

System: NCI-H661
Test: Pemetrexed cytotoxicity test upon suppression of expression of MYT1
Type: cell-based
Conditions: Homo sapiens, NCI-H661 (RB1 wild-type), 7 days
Protocol: Thereafter, the plates were shaken to transfect each siRNA at a final concentration of 10 nM.
The −Log 2 value of fold change of IC50 and the maximum value of Bliss score, which are indexes of the combination effect, were calculated by comparing with the actually obtained cell survival curve, and described in Table 6 (see Non Patent Literature 9).

**Q.** How did the IC50 (read-out: IC50 of pemetrexed, MYT1 #16, MYT1 siRNA #16 10 nM) turn out when `Nc1nc2[nH]cc(CCc3ccc(C(=O)N[C@@H](CCC(=O)O)C(=O)O)cc3)c2c(=O)[nH]1` [pemetrexed] was run?
**A.** The IC50 was 45.7 nM.

**Q.** And the IC50 (read-out: IC50 of pemetrexed, MYT1 #18, MYT1 siRNA #18 10 nM)?
**A.** The IC50 was 129 nM.

**Q.** What about the IC50 (read-out: IC50 of pemetrexed, NT, negative control siRNA 10 nM) of the same molecule?
**A.** Its IC50 is 315 nM.
